{
  "source": "patent US20160303205A1",
  "about": "“Combination Therapies for Lysosomal Storage Diseases” (Washington University, priority 2015, published 2016)",
  "key": {"[1]": {"system": "Twitcher mice", "experiment": "Lifespan of Twitcher mice (Kaplan-Meier survival)", "assay_type": "in vivo, mouse", "description": "Treated and untreated Twitcher mice as well as untreated controls were used in all experiments. […] The experimental and control animals were randomly assigned to groups for analysis at pre-determined time points (n=3-6 animals per time point) or for life span and behavioral analyses (n=10-14 animals per group). The number of animals per group was based on previous experience with this model and the specific assays as well as power calculations. Quantitative biochemical analyses (GALC activity, psychosine measurements, cytokine/chemokine levels) were performed in duplicate on tissues from 3-6 animals, depending on the assay. Semi-quantitative histomorphometry was performed on at least 3 representative sections per animal from at least 3 animals per group. The photography settings were kept constant for all images. Analysis of variance (ANOVA) was used for group comparisons with Bonferroni correction for pair-wise comparisons. Student's t-test was used to compare the means of two groups. Significant differences in life span were determined by log-rank test. […]\nAnimals were housed at Washington University School of Medicine. […] Genotypes were determined on postnatal day 1 by PCR as previously described (Sakai et al. 1996 J Neurochem 66:1118-1124; Lin et al., 2005 Molecular Therapy 12:422-430.). […]\nLifespan was recorded as the age of the animal on the date of death or sacrifice. […]"}, "[2]": {"system": "Twitcher mice", "conditions": "Twitcher mouse; literature (LeVine 2000; Biswas and LeVine 2002); cited from earlier work"}},
  "note": "Like-named read-outs stand apart in the source and are kept apart here.",
  "data": [
    {"smiles": "N[C@H]1CONC1=O", "note": "[L-cycloserine]", "values": [
      {"measurement": "median lifespan", "setting": "[1]", "result": "~57", "unit": "days"},
      {"measurement": "median lifespan", "setting": "[1]; untreated Twitcher 39.5 d", "result": 57, "unit": "days"},
      {"measurement": "lifespan", "setting": "[2]", "result": "~57", "unit": "days"}
    ]}
  ]
}
